In US10570179B2, “Substituted urea depsipeptide analogs as activators of the CLPP endopeptidase” (priority 2016, dated 2020):
In brackets after ≈: the same amount, converted by molar mass. Read-outs that look alike come from different tables or passages of the source. Numbered stars: 1 amine (or outer) side, 2 acyl side, 3 side chain; on linkers, the order of the positions; unused ones are H or OH. Bridge positions count the residues as written; N and C are the ends. Square brackets hold non-standard residues; d marks the D form. Peptide text beside a SMILES is read from it. * marks the point of attachment. Piperazine(2S-CO,4-Me) = CN1CCN[C@H](C(=O)O)C1; NH(1,3-benzodioxol-5-yl) = c1cc2c(cc1N*)OCO2; Phe(3,5-Me2) = Cc1cc(C)cc(C[C@H](N)C(=O)O)c1; Phe(3-Cl) = N[C@@H](Cc1cccc(Cl)c1)C(=O)O; Morpholine(3S-CO) = O=C(O)[C@@H]1COCCN1; Phe(3-Me) = Cc1cccc(C[C@H](N)C(=O)O)c1; X4 = O=C1CN([*:1])[C@H](C(=O)[*:2])CN1; NH(4-Cl-2-F-phenyl) = Fc1cc(Cl)ccc1N*; Pro(4R-Me) = C[C@H]1CN[C@H](C(=O)O)C1; Hyp = O=C(O)[C@@H]1C[C@@H](O)CN1; NH(4-Et-phenyl) = CCc1ccc(N*)cc1; NH(4-Me-phenyl) = Cc1ccc(N*)cc1; aThr = C[C@H](O)[C@H](N)C(=O)O; Pip = O=C(O)[C@@H]1CCCCN1; CO = O=C([*:1])[*:2]

Tests used:
Sa-ClpP = target: T1, Sa-ClpP (Staphylococcus aureus, UniProt Q2G036); assay: ADEP displacement fluorescence polarization assay; type: binding, S. aureus; conditions: displacement of FP probe ADEP 2591 from Sa-ClpP
T1 construct: made in house; host or cells: E. coli BL21 (DE3)
T1 sequence (Q2G036 whole entry): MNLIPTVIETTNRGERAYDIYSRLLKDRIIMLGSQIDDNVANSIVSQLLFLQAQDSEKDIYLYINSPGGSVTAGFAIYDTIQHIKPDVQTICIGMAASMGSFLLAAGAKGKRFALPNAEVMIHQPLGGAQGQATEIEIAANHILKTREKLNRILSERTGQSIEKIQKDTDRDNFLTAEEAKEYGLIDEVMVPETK
Procedure: A fluorescence polarization (FP) assay was used to determine the activity of the disclosed compounds in displacing an ADEP analogue from ClpP. Briefly, the assay was performed in black 384 well, flat bottom, low volume plates (Greiner Bio-One, Monroe, N.C., catalog #784076). 20 μL of a pre-equilibrated (1 hr, room temperature) master mix (15 μM Sa-ClpP, 2% DMSO (v/v) and 50 nM FP probe in TrisHCl, pH 8.0)) was pipetted into each well using a Well-Mate (Thermo Scientific, Waltham, Mass.). Sa-ClpP was prepared as described above for the ClpP activation assay. The FP probe was ADEP 2591 (structure shown above). The ADEP 2591 comprises a TAMRA fluorophore linked to a core based on modified ADEP 2378 via a short alkyl linker. Using pin transfer, approximately 0.4 μL (2% v/v DMSO) of each compound or control was added per well. After addition of compounds and controls, plates were allowed to incubate for an additional 120 minutes at room temperature. All assays were performed in triplicate. Polarization was monitored using an EnVision Multilabel reader (Perkin-Elmer, Waltham, Mass.) by exciting the FP probe at 530±25 nm, and monitoring fluorescence intensity of both parallel and perpendicular polarized light at 579±25 nm. Readout was in millipolarization units (mP).
Signal gain and G factors were determined in wells containing 200 μM ADEP 2378, which had been previously verified (data not shown) as containing completely unbound ADEP 2591. Data collected was normalized to values obtained from positive (200 μM ADEP 2378) or negative (DMSO) controls. Curves were fit with non-linear regression using the equation “log [inhibitor] vs. Response-variable slope (four parameters)-symmetrical” in the program Prism 6 (GraphPad Software, La Jolla, Calif. USA, www.graphpad.com). The structures for ADEP 2378 and ADEP 2591 are shown above. ADEP 2378 is (E)-N—((S)-1-(((2R,6S,8aS,14aS,20S,23aS)-2,6-dimethyl-5,8,14,19,23-pentaoxooctadecahydro-1H,5H,14H,19H-pyrido[2,1-i]dipyrrolo[2,1-c:2′,1′-1][1]oxa[4,7,10,13]tetraazacyclohexadecin-20-yl)amino)-1-oxo-3-phenylpropan-2-yl)pent-2-enamide. ADEP 2591 is 5-(3-(3-((6S,9S,11aS,17S,20aS)-6,10-dimethyl-5,8,11,16,20-pentaoxo-17-((S)-2-((E)-pent-2-enamido)-3-phenylpropanamido)hexadecahydro-1H,5H,16H-dipyrrolo[2,1-c:2′,1′-1][1]oxa[4,7,10,13]tetraazacyclohexadecin-9-yl)propyl)thioureido)-2-(6-(dimethylamino)-3-(dimethyliminio)-3H-xanthen-9-yl)benzoate.

S. aureus ATCC 29213 = assay: Minimal inhibitory concentration, microbroth dilution; type: cell-based; conditions: Staphylococcus aureus
How it was run: (§1)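 Susceptibility testing used the CLSI dilution standard, with bacteria at ~10^5 cfu/mL exposed to a two-fold compound series beginning at 200 μM final. The endpoint is the lowest concentration showing no growth after overnight incubation (37 °C, aerobic).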

E. faecails = assay: as above; type: cell-based; conditions: Enterococcus faecalis
How it was run: as §1

[1] = Plasma protein binding, rapid equilibrium dialysis; type: in vitro ADME, human; conditions: 10 μM
Procedure: This assay determines plasma protein binding of a drug/compound and free drug concentration in plasma using rapid equilibrium dialysis, which allow the aqueous component of plasma containing the free drug/compound through a dialysis membrane (MWCO˜8,000).
Solutions were prepared at 10 mM in DMSO. Dulbecco's phosphate buffered saline (DPBS; pH 7.4) was obtained from Invitrogen (Carlsbad, Calif.). Single-Use RED (rapid equilibrium dialysis) device was obtained from Thermo scientific (Rockford, Ill.). Human plasma was obtained from Innovative Research INC (Novi, Michigan, Ill).
Sample preparation for plasma protein binding was modified from Waters' method. (Waters et al. (2008) J. Pharm. Sci. 97(10): 4586-95). The Teflon base plate with the RED inserts (MWCO 8 K) were allowed to use without any pre-condition the membrane inserts. Human plasma was thawed and centrifuged at 1000 rpm for 2 min to remove any particulates. Each compound was prepared at 10 μM in human plasma. This was done by adding 1 μL, of drug solution (10 mM in DMSO) to 1000 μL, of human plasma (0.1% DMSO). Spiked plasma solutions (300 μL) were placed into the sample chamber (indicated by the red ring) and 500 μL, of DPBS into the adjacent chamber. The plate was sealed and incubated at 37° C. on an orbital shaker (100 rpm) for 4 hours. After incubation, the seal was removed from the RED plate and the volume of the insert confirmed—little to no volume change occurred. Aliquots (50 μL) were removed from each side of the insert and dispensed into a 96-well deep plate. An equal volume of blank plasma or DPBS was added to the required wells to create analytically identical sample matrices (matrix matching). To each sample 200 μL, of ACN containing 4 μg/mL warfarin IS was added. All of the plates were sealed and mixed well at 600 rpm for 10 min and were centrifuged at 4000 rpm for 20 min. The supernatants (120 μL) were transferred to analytical plates for analysis by LCMS. Conditions for Waters ACQUITY-UPLC-MS-UV system were described separately. The test compound concentrations were quantified in both buffer and plasma chambers via peak areas relative to the internal standard. The percentage of the test compound bound to plasma was calculated on following equations: % Free=(Concentration buffer chamber/concentration plasma chamber)×100% and % Bound=100%-% Free.

[2] = ATCC29213, MIC, read-out: Minimal Inhibitory Concentrations (μM) S. aureus ATCC 29213
[3] = MIC, read-out: Minimal Inhibitory Concentrations (μM) E. faecails
[4] = ATCC29213, read-out: Minimal Inhibitory Concentrations (μM) S. aureus ATCC 29213, MIC
[5] = read-out: Minimal Inhibitory Concentrations (μM) E. faecails, MIC
[6] = plasma binding, % Bound, human plasma

Row | Compound | IC50 (Sa-ClpP) | MIC (S. aureus ATCC 29213; [2]) | MIC (E. faecails; [3]) | Human ([1]; human, 4 h, pH 7.4) | MIC (S. aureus ATCC 29213; [4]) | MIC (E. faecails; [5]) | Human [1, 6]
1 | Cc1cccc(C[C@H](NC(=O)Nc2ccc(Cl)cc2F)C(=O)N[C@@H]2C(=O)N3CCC[C@H]3C(=O)N3CC(=O)NC[C@H]3C(=O)N[C@@H](C)C(=O)N3C[C@H](C)C[C@H]3C(=O)O[C@H]2C)c1 [Compound 20, (S)-2-(3-(4-CHLORO-2-FLUOROPHENYL)UREIDO)-3-(M-TOLYL)-N-((6AS,12S,13S,15AS,17R,21S,23AS)-13,17,21-TRIMETHYL-3,6,11,15,20,23-HEXAOXOOCTADECAHYDRO-2H,6H,11H,15H-PYRAZINO[2,1-I]DIPYRROLO[2,1-C:2′,1′-L][1]OXA[4,7,10,13]TETRAAZACYCLOHEXADECIN-12-YL)PROPANAMIDE] ({NH(4-Cl-2-F-phenyl)-CO}-[Phe(3-Me)][aThr]P[X4]A[Pro(4R-Me)]; ester 2-C) | 4.21 ± 0.2 µM | 1.25 µM (≈ 1.05 µg/mL) | 2.5 µM (≈ 2.1 µg/mL) | 97.5 ± 0.2% |  |  | 
2 | CCc1ccc(NC(=O)N[C@@H](Cc2cccc(C)c2)C(=O)N[C@@H]2C(=O)N3C[C@H](O)C[C@H]3C(=O)N3CCCC[C@H]3C(=O)N[C@@H](C)C(=O)N3C[C@H](C)C[C@H]3C(=O)O[C@H]2C)cc1 [Compound 25, (S)-2-(3-(4-ETHYLPHENYL)UREIDO)-N-((2R,6S,8AS,14AS,16R,20S,21S,23AS)-16-HYDROXY-2,6,21-TRIMETHYL-5,8,14,19,23-PENTAOXOOCTADECAHYDRO-1H,5H,14H,19H-PYRIDO[2,1-I]DIPYRROLO[2,1-C:2′,1′-L][1]OXA[4,7,10,13]TETRAAZACYCLOHEXADECIN-20-YL)-3-(M-TOLYL)PROPANAMIDE] ({NH(4-Et-phenyl)-CO}-[Phe(3-Me)][aThr][Hyp][Pip]A[Pro(4R-Me)]; ester 2-C) | 4.76 ± 0.33 µM | 0.156 µM (≈ 0.127 µg/mL) | 0.156 µM (≈ 0.127 µg/mL) | 99.2 ± 0.3% |  |  | 
3 | C[C@@H]1C[C@H]2C(=O)O[C@@H](C)[C@H](NC(=O)[C@H](Cc3cccc(Cl)c3)NC(=O)Nc3ccc(Cl)cc3F)C(=O)N3CCC[C@H]3C(=O)N3CCN(C)C[C@H]3C(=O)N[C@@H](C)C(=O)N2C1 [Compound 33] ({NH(4-Cl-2-F-phenyl)-CO}-[Phe(3-Cl)][aThr]P[Piperazine(2S-CO,4-Me)]A[Pro(4R-Me)]; ester 2-C) | 3.16 ± 0.16 µM | 0.078 µM (≈ 0.0671 µg/mL) | 0.078 µM (≈ 0.0671 µg/mL) | 99.1 ± 9.1% |  |  | 
4 | Cc1cccc(C[C@H](NC(=O)Nc2ccc3c(c2)OCO3)C(=O)N[C@H]2COC(=O)[C@@H]3C[C@@H](C)CN3C(=O)[C@H](C)NC(=O)[C@@H]3CN(C)CCN3C(=O)[C@@H]3CCCN3C2=O)c1 [Compound 17, (S)-2-(3-(BENZO[D][1,3]DIOXOL-5-YL)UREIDO)-3-(M-TOLYL)-N-((6AS,12S,15AS,17R,21S,23AS)-2,17,21-TRIMETHYL-6,11,15,20,23-PENTAOXOOCTADECAHYDRO-2H,6H,11H,15H-PYRAZINO[2,1-I]DIPYRROLO[2,1-C:2′,1′-L][1]OXA[4,7,10,13]TETRAAZACYCLOHEXADECIN-12-YL)PROPANAMIDE] ({NH(1,3-benzodioxol-5-yl)-CO}-[Phe(3-Me)]SP[Piperazine(2S-CO,4-Me)]A[Pro(4R-Me)]; ester 2-C) | 6.02 ± 0.2 µM | 20 µM (≈ 16.3 µg/mL) | 1.25 µM (≈ 1.02 µg/mL) | 95.4 ± 1.1% |  |  | 
5 | Cc1ccc(NC(=O)N[C@@H](Cc2cccc(C)c2)C(=O)N[C@H]2COC(=O)[C@@H]3C[C@@H](C)CN3C(=O)[C@H](C)NC(=O)[C@@H]3CN(C)CCN3C(=O)[C@@H]3CCCN3C2=O)cc1 [Compound 15, (S)-3-(M-TOLYL)-2-(3-(P-TOLYL)UREIDO)-N-((6AS,12S,15AS,17R,21S,23AS)-2,17,21-TRIMETHYL-6,11,15,20,23-PENTAOXOOCTADECAHYDRO-2H,6H,11H,15H-PYRAZINO[2,1-I]DIPYRROLO[2,1-C:2′,1′-L][1]OXA[4,7,10,13]TETRAAZACYCLOHEXADECIN-12-YL)PROPANAMIDE] ({NH(4-Me-phenyl)-CO}-[Phe(3-Me)]SP[Piperazine(2S-CO,4-Me)]A[Pro(4R-Me)]; ester 2-C) | 8.12 ± 0.2 µM |  |  |  | 2.5 µM (≈ 1.97 µg/mL) | 1.25 µM (≈ 0.984 µg/mL) | 95.2 ± 1.5%
6 | Cc1ccc(NC(=O)N[C@@H](Cc2cc(C)cc(C)c2)C(=O)N[C@@H]2C(=O)N3CCC[C@H]3C(=O)N3CCCC[C@H]3C(=O)N[C@@H](C)C(=O)N3C[C@H](C)C[C@H]3C(=O)O[C@H]2C)cc1 [Compound 2, (S)-3-(3,5-DIMETHYLPHENYL)-2-(3-(P-TOLYL)UREIDO)-N-((2R,6S,8AS,14AS,20S,21S,23AS)-2,6,21-TRIMETHYL-5,8,14,19,23-PENTAOXOOCTADECAHYDRO-1H,5H,14H,19H-PYRIDO[2,1-I]DIPYRROLO[2,1-C:2′,1′-L][1]OXA[4,7,10,13]TETRAAZACYCLOHEXADECIN-20-YL)PROPANAMIDE] ({NH(4-Me-phenyl)-CO}-[Phe(3,5-Me2)][aThr]P[Pip]A[Pro(4R-Me)]; ester 2-C) | 8.82 ± 0.4 µM |  |  |  | 1.25 µM (≈ 1 µg/mL) | 2.5 µM (≈ 2 µg/mL) | 99.3%
7 | CCc1ccc(NC(=O)N[C@@H](Cc2cccc(C)c2)C(=O)N[C@@H]2C(=O)N3C[C@H](O)C[C@H]3C(=O)N3CCOC[C@H]3C(=O)N[C@@H](C)C(=O)N3C[C@H](C)C[C@H]3C(=O)O[C@H]2C)cc1 [Compound 24, (S)-2-(3-(4-ETHYLPHENYL)UREIDO)-N-((6AS,8R,12S,13S,15AS,17R,21S,23AS)-8-HYDROXY-13,17,21-TRIMETHYL-6,11,15,20,23-PENTAOXOOCTADECAHYDRO-6H,11H,15H-[1,4]OXAZINO[3,4-I]DIPYRROLO[2,1-C:2′,1′-L][1]OXA[4,7,10,13]TETRAAZACYCLOHEXADECIN-12-YL)-3-(M-TOLYL)PROPANAMIDE] ({NH(4-Et-phenyl)-CO}-[Phe(3-Me)][aThr][Hyp][Morpholine(3S-CO)]A[Pro(4R-Me)]; ester 2-C) | 2.31 ± 0.2 µM | 0.313 µM (≈ 0.256 µg/mL) | 0.156 µM (≈ 0.128 µg/mL) | 97.7 ± 0.2% |  |  | 
